Tests used:
E. coli Juhl = test: Minimum inhibitory concentration, serial dilution in synthetic bacterial growth medium; type: cell-based; details: 35-37 °C, 16-20 hours, value in parentheses: a higher concentration did not always inhibit growth
Experimental: (§1) The above fluorinated dipeptides are prepared in sterile concentrated aqueous solutions. Serial dilutions are made to give a range of concentrations of the test substances. Samples of the dilutions are mixed with an appropriate sterile synthetic bacterial growth medium in test tubes. The tubes are then inoculated with an appropriate test organism and incubated at 35°-37° C. for 16-20 hours. […]

Enterococcus 89 = test: as above; type: cell-based; details: 35-37 °C, 16-20 hours
Experimental: as §1

Staph. aureus Smith = test: as above; type: cell-based; details: 35-37 °C, 16-20 hours, value in parentheses: a higher concentration did not always inhibit growth
Experimental: as §1

Kleb. pneumonise 8045 = test: as above; type: cell-based; details: 35-37 °C, 16-20 hours, value in parentheses: a higher concentration did not always inhibit growth
Experimental: as §1

Staph. aureus (Smith) = test: In vivo mouse protection test (CD50, 7-day survival after intraperitoneal infection); parameters: species or system Charles River mice; details: peptide alone, subcutaneous, e.g. 1 and 5 hours post-infection, mice infected i.p. with 10-100 x LD50 Staph. aureus (Smith)
Experimental: Charles River mice weighing approximately 20 g. each, were infected intraperitoneally with 10-100 times the LD50 of the infecting organism. At predetermined intervals post-infection, e.g., 1 and 5 hours, mice were dosed subcutaneously with graded doses of the new dipeptide, antibiotic and a combination thereof. The number of mice surviving each treatment for 7 days post-infection was observed and the CD50 is calculated. The results using D-cycloserine as an example of the antiobiotic and representative fluorinated dipeptides are shown in Table II, using Staph. aureus (Smith) as the infecting organism. The values are listed in mg./kg.

Bacillus subtilis 9466 = test: Minimum inhibitory concentration, serial dilution in synthetic bacterial growth medium; type: cell-based; details: 35-37 °C, 16-20 hours, value in parentheses: a higher concentration did not always inhibit growth
Experimental: as §1

Strep. faecalis 10541 = test: as above; type: cell-based; details: 35-37 °C, 16-20 hours, value in parentheses: a higher concentration did not always inhibit growth
Experimental: as §1

Shigella sonnei 9290 = test: as above; type: cell-based; details: 35-37 °C, 16-20 hours, value in parentheses: a higher concentration did not always inhibit growth
Experimental: as §1

SMILES	Minimum inhibitory concentration (E. coli Juhl)	Minimum inhibitory concentration (Enterococcus 89)	Minimum inhibitory concentration (Staph. aureus Smith)	Minimum inhibitory concentration (Kleb. pneumonise 8045)	CD50, Peptide (Staph. aureus (Smith)) [mg/kg]	Minimum inhibitory concentration (Bacillus subtilis 9466)	Minimum inhibitory concentration (Strep. faecalis 10541)	Minimum inhibitory concentration (Shigella sonnei 9290)
CC(C)[C@H](NC(=O)[C@H](N)CF)C(=O)O [Example 6, βF-D-Ala-L-Val]	800	6.2	800	800				
C[C@H](NC(=O)[C@H](N)CF)C(=O)O [Example 1, β-fluoro-D-alanyl-L-alanine]		200			9.4			
N[C@H](CF)C(=O)N[C@@H](CCC(=O)O)C(=O)O [Example 3, βF-D-Ala-L-Glu]		25	800			3.1	50	
CC(C)(NC(=O)[C@H](N)CF)C(=O)O [Example 5, βF-D-Ala-Aibu]		25	800	800			800	
CC(C)C[C@H](NC(=O)[C@H](N)CF)C(=O)O [Example 4, F-D-Ala-L-Leu]	800	25	800	800		6.2	3.1	800
N[C@H](CF)C(=O)N[C@@H](Cc1ccccc1)C(=O)O [Example 2, β-fluoro-D-alanyl-L-phenylalanine]		25			75 to 150	3.1	0.78	
